Measurements from US8633168B2, “Inhibitors of S-adenosyl-L-methionine decarboxylase” (Genzyme Corporation, priority 2007, dated 2014).
Read-outs that look alike come from different tables or passages of the source.

Columns and labels:
[1] = Microsomal stability, rat; type: in vitro ADME; settings: for Microsomal stability (CL) rat: Table 2; for CLint scaled: Example 12 chart
Procedure: (§1) Liver microsomes and hepatocytes represent an in vitro surrogate for assessing the phase I/II metabolic stability of new discovery leads. Following the incubation of the compounds with microsomes or hepatocytes of different species (e.g., human, rat, dog, monkey, mouse), the samples were transferred to 96 well plates for quantitation using LC/MS/MS. The % of compound remaining was measured and used to calculate clearance and % hepatic blood flow.

Schistosomes lavae = assay: Screening against Schistosomes, larvae; type: cell-based; settings: Screening Data
[2] = Plasma protein binding (RED), human; type: in vitro ADME; settings: for Plasma Protein Binding % human: Example 12 chart
Procedure: (§2) Rapid Equilibrium Dialysis device (RED) is a 96-well formatted dialysis with disposable inserts and Teflon base design providing short incubation time. The membrane in RED physically separates of bound and free drug. After 4 hr incubation at 37° C., drug concentrations at both plasma (e.g., human, rat, dog, monkey, mouse) and pH 7.4 PBS buffer sides was quantitated by LC/MS/MS and % bound drug in plasma was calculated.

[3] = Hepatocyte stability, rat; type: in vitro ADME; settings: for Hepatocyte stability (CL) rat: Table 2; for CLint scaled: hepatocytes, Example 12 chart
Procedure: as §1

[4] = Permeability through lipid soaked artificial membrane; type: in vitro ADME; settings: for Perm.: Table 2
Procedure: A stock solution for each test compound was prepared at 10 mM in DMSO. These were diluted into phosphate buffer and placed on one side (donor) of a two chamber microtiter plate separated by a lipid soaked membrane. With time, the compound passively diffused across the membrane barrier and the concentration in the second chamber (acceptor) increases. At the end of the experiment, drug concentration was determined in both the donor and acceptor solutions by UV absorbance. The permeability was calculated from the change in concentration, surface area, and incubation time.

[5] = Plasma protein binding (RED), mouse; type: in vitro ADME
Procedure: as §2

[6] = Hepatocyte stability, human; type: in vitro ADME; settings: for Hepatocyte stability (CL) human: Table 2; for CLint scaled: hepatocytes, Example 12 chart
Procedure: as §1

T. b. brucei = assay: Cell-based screening against T. b. brucei; design: species or system Trypanosoma brucei brucei; settings: Screening Data, two values per compound
Procedure: (§3) The bloodstream form trypomastigotes of the three strains are maintained according to standard protocols established at STI.
(§4) Drug sensitivity assays are performed in sterile 96-well microtiter plates, with or without serial drug dilutions. The highest concentration for the test compounds is 90 μg/ml. Each drug is tested in duplicate. After 72 hours of incubation the plates are inspected microscopically to assure growth of the controls to determine the minimum inhibitory concentration (MIC), i.e., the lowest drug concentration at which no trypanosomes with normal morphology and motility can be seen compared to control wells. Cell viability is measured by Alamar blue staining and IC50 values are calculated.
Active compounds (IC50<0.2 μg/ml) are tested against the Trypanosoma brucei gambiense STIB 930 and the multi-drug resistant T. b. brucei STIB 950 following the same protocol as described above.
This example provides data relating to the biological screening results. MDL 73811 and selected new compounds 1-7 were tested against a variety of cell-based organisms and enzymes and the IC50 measured. In vitro ADME profiles were also obtained. Solubility, permeability, microsomal/hepatocyte stability, cychrome P450 inhibition and plasma protein binding characteristics were probed for each of the compounds. The methodology for these tests are described in previous paragraphs. The results are summarized in the following 2 charts.

[7] = test system: Trypanosoma brucei rhodesiense strain STIB 900; assay: Drug sensitivity assay against T. b. rhodesiense (Alamar blue); type: cell-based
Excerpt: Trypanosoma brucei rhodesiense strain STIB 900, a clone of a population isolated in 1982 from a patient in Tanzania which is known to be susceptible to all currently used drugs was used in these assays. The bloodstream form trypomastigotes of this strain were maintained in supplemented Modified Eagle's Medium according to standard protocols (Hirumi H, Hirumi K, 1989. “Continuous cultivation of Trypanosoma brucei blood stream forms in a medium containing a low concentration of serum protein without feeder cell layers”. J Parasitol 75: 985-9).
as §4, with “assays were” for “assays are”, “The compounds were tested at 7 concentrations (drug concentration ranging from 90 μg/ml to 0.123 μg/ml in 3-fold dilutions). The” for “The”, “compounds was” for “compounds is”, “plates were” for “plates are”, “values were” for “values are”
as §3, §4
The preliminary screen used T. b. rhodesiense. The compounds were tested at 7 concentrations (drug concentration ranging from 90 μg/ml to 0.123 μg/ml in 3-fold dilutions).

[8] = Solubility in phosphate buffer; type: physicochemical; settings: for Sol.: Table 2, @ 7.4
Procedure: A stock solution for each test compound was prepared at 25 mM in DMSO. These were diluted into phosphate buffer and equilibrated for 16 hours at room temperature, and then filtered to remove precipitated compound. The UV absorbance of this equilibrated sample was compared to a single point reference standard.

CYP3A4 = CYP3A4 (Homo sapiens, UniProt P08684); assay: Cytochrome P450 inhibition, CYP3A4
CYP3A4, sequence (P08684 whole entry): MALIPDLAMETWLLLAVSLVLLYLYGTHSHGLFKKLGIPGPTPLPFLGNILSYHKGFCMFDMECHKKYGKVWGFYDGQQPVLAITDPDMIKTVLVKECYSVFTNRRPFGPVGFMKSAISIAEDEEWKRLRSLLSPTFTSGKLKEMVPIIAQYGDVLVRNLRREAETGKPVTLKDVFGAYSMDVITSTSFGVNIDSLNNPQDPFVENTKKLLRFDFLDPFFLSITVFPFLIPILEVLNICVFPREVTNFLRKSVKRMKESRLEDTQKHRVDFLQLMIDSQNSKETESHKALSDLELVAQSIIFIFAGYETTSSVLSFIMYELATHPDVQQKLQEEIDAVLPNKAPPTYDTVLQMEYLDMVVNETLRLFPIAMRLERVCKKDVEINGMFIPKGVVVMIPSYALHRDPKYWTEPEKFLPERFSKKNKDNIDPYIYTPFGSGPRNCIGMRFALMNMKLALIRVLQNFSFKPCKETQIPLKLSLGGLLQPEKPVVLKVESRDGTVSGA
Excerpt: (§5) This cytochrome P450 high throughput IC50 inhibition assay is utilized for screening potential inhibitors of the 5 major human CYP isozyme catalytic activities (CYP3A4, 2D6, 2C9, 2C19, and 1A2).

CYP1A2 = target: T1, CYP1A2 (Homo sapiens, UniProt P05177); assay: Cytochrome P450 inhibition, CYP1A2
T1 sequence (P05177 1-516): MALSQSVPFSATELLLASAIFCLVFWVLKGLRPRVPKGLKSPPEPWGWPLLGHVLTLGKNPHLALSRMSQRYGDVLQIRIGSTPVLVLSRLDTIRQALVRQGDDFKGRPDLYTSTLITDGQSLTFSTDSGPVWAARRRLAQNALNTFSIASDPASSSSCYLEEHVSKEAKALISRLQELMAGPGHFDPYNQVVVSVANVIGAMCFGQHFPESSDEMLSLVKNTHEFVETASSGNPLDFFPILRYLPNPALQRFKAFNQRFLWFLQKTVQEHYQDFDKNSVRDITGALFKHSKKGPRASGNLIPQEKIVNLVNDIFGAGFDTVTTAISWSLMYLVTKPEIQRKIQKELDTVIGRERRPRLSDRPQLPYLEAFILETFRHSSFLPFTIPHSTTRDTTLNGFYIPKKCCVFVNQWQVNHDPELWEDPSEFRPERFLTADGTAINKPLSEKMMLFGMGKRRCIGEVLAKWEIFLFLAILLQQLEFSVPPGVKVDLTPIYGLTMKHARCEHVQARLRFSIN
Excerpt: as §5

[9] = Screening Data, read-out: IC50 T. b. rhod.
[10] = Table 1, 72 hours incubation, Alamar blue, read-out: IC50 against T. b. rhodesiense (ug/mL) by STI
[11] = Table 2, read-out: IC50 against T. b. rhodesiense (ug/mL) by STI
[12] = read-out: CYP IC50 1A2, Example 12 chart

SMILES: CN(C/C=C\CN)C[C@H]1O[C@@H](n2cnc3c(N)nc(Cl)nc32)[C@H](O)[C@@H]1O [Compound 3]
- Microsomal stability (CL) rat [1]: <11 mL/min/kg
- CLint scaled ([1]; liver microsomes): < 7.7 mL/min/kg
- IC50 (Schistosomes lavae): > 10 µM
- Plasma Protein Binding % human [2]: 39%
- fraction unbound at 4 hr ([2]; pH 7.4, Table 2, human plasma): 0.61
- Hepatocyte stability (CL) rat [3]: <11 mL/min/kg
- CLint scaled [3]: < 3.5 mL/min/kg
- Permeability ([4]; Example 12 chart): 0.36 10−6 cm/sec
- Perm. [4]: 0.36 10-6 cm/s
- Plasma protein binding (%) mouse ([5]; Table 2, mouse plasma): 42.2%
- fraction unbound at 4 hr ([5]; plasma, pH 7.4, Example 12 chart, mouse): 0.578
- Hepatocyte stability (CL) human [6]: <4.2 mL/min/kg
- CLint scaled [6]: < 1.7 mL/min/kg
- IC50 (T. b. brucei): 5.96 µM
- IC50 (T. b. brucei; Trypanosoma brucei): 8.57 µM
- IC50 [7, 9]: 1.76 µM
- IC50 [7, 10]: 0.676 µg/mL
- IC50 [7, 11]: 0.676 µg/mL
- Sol. [8]: >51 (@ 7.4) ug/ml
- solubility at 16 hours ([8]; phosphate buffer, aqueous buffer, kinetic from dmso stock, Example 12 chart, pH 7.4): > 51 µg/mL
- IC50 (CYP3A4): > 5 µM
- IC50 (CYP3A4; read-out: CYP IC50 3A4, Example 12 chart): > 5 µM
- IC50 (CYP1A2): > 5 µM
- IC50 (CYP1A2; [12]): > 5 µM

SMILES: CN(C/C=C\CN)CC1OC(n2cnc3c(N)ncnc32)C(O)C1O (stereo not shown) [MDL-73811, reference compound]
- Microsomal stability (CL) rat [1]: <11 mL/min/kg
- CLint scaled ([1]; microsomes): < 7.7 mL/min/kg
- IC50 (Schistosomes lavae): > 10 µM
- Plasma Protein Binding % human [2]: 72.9%
- fraction unbound ([2]; pH 7.4, Table 2, human plasma): 0.271
- Hepatocyte stability (CL) rat [3]: <11 mL/min/kg
- CLint scaled [3]: < 3.5 mL/min/kg
- Papp ([4]; PAMPA, Example 12 chart): 1.1 ×10⁻⁶ cm/s
- Perm. [4]: 0.13 10-6 cm/s
- Plasma protein binding (%) mouse ([5]; Example 12 chart, mouse): 69.8%
- fraction unbound ([5]; pH 7.4, Table 2, mouse plasma): 0.302
- Hepatocyte stability (CL) human [6]: <4.2 mL/min/kg
- CLint scaled [6]: < 1.7 mL/min/kg
- IC50 (T. b. brucei): 0.257 µM
- IC50 (T. b. brucei; Trypanosoma brucei): 0.171 µM
- IC50 [7, 9]: 0.011 µM
- IC50 [7, 10]: 0.004 µg/mL
- IC50 [7, 11]: 0.004 µg/mL
- IC50 ([7]; Table 3, read-out: IC50 against T. brucei rhodesiense): 0.004 µg/mL
- Sol. [8]: >47 (@ 7.4) ug/ml
- solubility ([8]; aqueous buffer, kinetic from dmso stock, Example 12 chart, pH 7.4): > 47 µg/mL
- IC50 (CYP3A4): > 5 µM
- IC50 (CYP3A4; human): > 5 µM
- IC50 (CYP1A2): > 5 µM
- IC50 (CYP1A2; [12]): > 5 µM
